Experimental data reported in PubChem BioAssay (NCI).
Several values for one entry are separate records, joined by “and”; a condition that tells them apart may be missing. Equal values may be shown once.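 Five compound concentrations were applied to cells in 96-well plates for 48 hours; endpoints were derived by simple linear interpolation of the resulting dose-response curve. GI50 marks 50% less growth. TGI: concentration producing complete growth inhibition.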

Experiments:
Test in all cases: NCI anticancer screen, dose series, 48 h
[1] = tested on: A549 NSCLC
[2] = tested on: ACHN renal
[3] = tested on: BT-549 breast
[4] = tested on: CCRF-CEM leukemia
[5] = tested on: HL-60(TB) leukemia
[6] = tested on: HT29 colon
[7] = tested on: K-562 leukemia
[8] = tested on: MDA-N
[9] = tested on: NCI-H226 lung
[10] = tested on: OVCAR-5 ovarian
[11] = tested on: SK-MEL-28 melanoma

SMILES	TGI [1]	TGI [2]	TGI [3]	TGI [4]	TGI [5]	TGI [6]	TGI [7]	TGI [8]	TGI [9] [µM]	TGI [10] [µM]	TGI [11]	GI50 [1] [µM]	GI50 [2] [µM]	GI50 [3] [µM]	GI50 [4] [µM]	GI50 [5] [µM]	GI50 [6] [µM]	GI50 [7] [µM]	GI50 [8] [µM]	GI50 [11] [µM]
Cc1cc(C)c2c(=O)n(CC(O)CN3CCN(c4ncccn4)CC3)sc2n1 (centres undefined)	31.2 µM	32.4 µM	32.3 µM	> 100 µM	38.9 µM	29.6 µM	> 100 µM	29.5 µM	> 100	31.1	36.6 µM	–	–	–	–	–	–	–	–	–
CS(=O)(=O)c1nc(-c2cc3c(c(S(C)(=O)=O)n2)CCC3)cc2c1CCC2	> 100 µM	> 100 µM	> 100 µM	> 100 µM	> 100 µM	> 100 µM	> 100 µM	> 100 µM	> 100	> 100	> 100 µM	–	–	–	–	–	–	–	–	–
O=C(/C=C/c1ccccc1O)CC(=O)/C=C/c1ccccc1O	26.9 µM	25.9 µM	45.7 µM	> 26.2 µM	9.87 µM	–	> 31.6 µM	13.3 µM	–	–	> 31.6 µM	–	–	–	–	–	–	–	–	–
Nc1nc(-c2ccccc2)cc(-c2ccc(F)cc2)c1-c1ccc(Cl)cc1	> 100 µM	> 100 µM	> 100 µM	> 100 µM	> 100 µM	> 100 µM	> 100 µM	> 100 µM	> 100	> 100	> 100 µM	–	–	–	–	–	–	–	–	–
COC(=O)c1ccc2c(c1)CCN2C(=O)c1cc2c(cc1Br)OCO2	50 µM and > 100 µM	49.3 µM and > 100 µM	45.5 µM and 5.57 µM	50 µM and > 100 µM	10.2 µM and 17.1 µM	50 µM and 12.1 µM	50 µM and > 100 µM	0.244 µM and 0.841 µM	4.44	> 50	50 µM and > 100 µM	3.27	6.56	0.424	0.742	0.31	0.507	0.824	0.252	19.2
CCOC(=O)C(C(N)=O)c1nc2cc([N+](=O)[O-])ccc2nc1/C=C(\O)c1ccc(C)cc1 (centres undefined)	> 74.1 µM	> 52.6 µM	51.4 µM	> 100 µM	–	> 100 µM	12.1 µM	> 100 µM	> 100	> 100	> 71.1 µM	–	–	–	–	–	–	–	–	–
O=C1CCCc2ccc3c(c21)CC1(Cc2cc4c(cc2C1)CCCC4)C3	> 100 µM	30 µM	72.6 µM	16 µM	26.3 µM	50.9 µM	25.1 µM	–	93.3	72.3	63.7 µM	–	–	–	–	–	–	–	–	–
N#CCCN(CCN(CCN(C(=O)Nc1ccccc1)c1ccccc1)C(=O)Nc1ccccc1)C(=O)Nc1ccccc1	> 100 µM	> 100 µM	> 100 µM	> 100 µM	–	–	–	> 100 µM	> 100	> 100	> 100 µM	–	–	–	–	–	–	–	–	–
CCCCC(=O)Nc1ccc2cc(C(=O)OC)c(=O)[nH]c2n1	> 100 µM	> 100 µM	> 100 µM	> 100 µM	–	–	> 100 µM	> 100 µM	> 100	> 100	> 100 µM	–	–	–	–	–	–	–	–	–
CCCCc1ccc(Nc2nc(N)c3[nH]cnc3n2)cc1	79.4 µM	35.5 µM	47.9 µM	52.4 µM	42.5 µM	28.3 µM	> 100 µM	32.6 µM	53.2	73.5	44.1 µM	–	–	–	–	–	–	–	–	–
NC(=O)c1ccc(N)nc1	> 400 µM	> 400 µM	> 400 µM	394 µM	> 400 µM	> 229 µM	> 400 µM	> 400 µM	> 400	> 400	> 400 µM	–	–	–	–	–	–	–	–	–
C=CCn1c(-c2ccc(N=NNc3ccc(-c4n[nH]c(=S)n4CC=C)cc3)cc2)n[nH]c1=S	> 100 µM	5.09 µM	6.68 µM	> 100 µM	–	–	7.71 µM	–	6.13	> 100	> 100 µM	–	–	–	–	–	–	–	–	–
NC(=O)c1ncn(C2CCC(CP(=O)(O)O)C2)c1N (centres undefined)	> 100 µM	> 100 µM	–	–	–	> 100 µM	–	> 100 µM	> 100	> 100	> 100 µM	–	–	–	–	–	–	–	–	–
O=C(O)c1cc(/C=C/c2ccc(O)c(O)c2)ccc1O	> 100 µM	> 100 µM	–	82.1 µM	> 100 µM	> 100 µM	44.9 µM	> 100 µM	> 100	> 100	> 100 µM	–	–	–	–	–	–	–	–	–
Brc1ccc2c(c1)[C@H]1CCc3c([nH]c4ccccc34)[C@H]1N2	47.4 µM	25 µM	34.7 µM	21.6 µM	–	27.1 µM	39.8 µM	28.7 µM	28.4	27	27 µM	–	–	–	–	–	–	–	–	–
COc1cc(CNc2nc3cc(C(F)(F)F)ccc3nc2C(=O)O)cc(OC)c1OC	61.5 µM	73.3 µM	> 100 µM	–	15.4 µM	–	61 µM	45.2 µM	> 100	> 100	> 100 µM	–	–	–	–	–	–	–	–	–
COC12OC3(C4OC41)C(C(=O)O[C@H]3CO[Si](C)(C)C(C)(C)C)C2S(=O)(=O)c1ccccc1 (some centres undefined)	> 100 µM	> 83.9 µM	> 100 µM	4.04 µM	7.66 µM	–	5.03 µM	–	> 100	> 12.2	> 5.53 µM	–	–	–	–	–	–	–	–	–
C=C1CN(C(=O)c2cc3cc(OC)c(OC)c(OC)c3[nH]2)c2cc([N+](=O)[O-])ccc21	> 100 µM	–	> 100 µM	–	> 100 µM	> 100 µM	> 100 µM	> 100 µM	> 100	> 100	> 100 µM	–	–	–	–	–	–	–	–	–
N.N.NCCCCN.O=C([O-])CCl.O=C([O-])CCl.O=C([O-])CCl.O=C([O-])CCl.[Pt+4].[Pt+4]	> 50 µM	> 50 µM	–	> 50 µM	> 50 µM	> 50 µM	> 50 µM	–	–	> 50	> 50 µM	–	–	–	–	–	–	–	–	–
CC12CCC3=C(CSC4=C3CSc3ccccc34)C1=CCCC2=O (centres undefined)	> 100 µM	> 100 µM	–	> 100 µM	> 100 µM	> 100 µM	> 100 µM	–	> 100	> 100	> 100 µM	–	–	–	–	–	–	–	–	–
